The test system of this assay is P388 leukemia ip, CD2F1 mice, survival T/C. Kind of assay: NCI In Vivo Anticancer Drug Screen. Data for tumor model P388 Leukemia (intraperitoneal) in CD2F1 (CDF1) mice. The note with it: endpoint: median survival time, higher = longer survival. A digest of the protocol: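 Mice carrying the transplanted tumor received test compound or vehicle. Survival was recorded in each group, and the value is the treated-group measurement divided by that of the vehicle-treated control group.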

Setting [1] is: dose: 50.0 mg/kg/injection, schedule: Q01DX005 (ip), vehicle: saline.
Where [2] appears, read: dose: 50.0 mg/kg/injection, schedule: Q01DX009 (ip), vehicle: saline with Tween-80.
Setting [3] is: dose: 100.0 mg/kg/injection, schedule: Q01DX009 (ip), vehicle: saline with Tween-80.
[4] abbreviates: dose: 100.0 mg/kg/injection, schedule: Q01DX009 (ip), vehicle: Klucel (hydroxypropylcellulose) (HPC).
The mark [5] stands for this setting: dose: 200.0 mg/kg/injection, schedule: Q01DX009 (ip), vehicle: Klucel (hydroxypropylcellulose) (HPC).
The mark [6] stands for this setting: dose: 50.0 mg/kg/injection, schedule: Q01DX009 (ip), vehicle: Klucel (hydroxypropylcellulose) (HPC).
Where [7] appears, read: dose: 50.0 mg/kg/injection, schedule: Q01DX005 (ip), vehicle: Klucel (hydroxypropylcellulose) (HPC).
Setting [8] is: dose: 100.0 mg/kg/injection, schedule: Q01DX005 (ip), vehicle: Klucel (hydroxypropylcellulose) (HPC).
Setting [9] is: dose: 200.0 mg/kg/injection, schedule: Q01DX005 (ip), vehicle: Klucel (hydroxypropylcellulose) (HPC).

Inconclusive results and toxic doses are left out.

In the case of `[NH-]C(CCC(N)=O)C(=O)O.[NH-]C(CCCCN)C(=O)O.[Zn+2]` (stereo not drawn), the T/C by setting is: (dose: 12.5 mg/kg/injection, schedule: Q01DX005 (ip), vehicle: saline) 102 % of control; (dose: 25.0 mg/kg/injection, schedule: Q01DX005 (ip), vehicle: saline) 105 % of control; under setting [1], 110 % of control.

`Clc1cccc(Cl)c1C(Nc1nc2ccccc2s1)Nc1nc2ccccc2s1`: the T/C was 110 % of control (dose: 50.0 mg/kg/injection, schedule: Q01DX005 (ip), vehicle: Klucel + Tween-80); 106 % of control (dose: 100.0 mg/kg/injection, schedule: Q01DX005 (ip), vehicle: Klucel + Tween-80); 109 % of control (dose: 200.0 mg/kg/injection, schedule: Q01DX005 (ip), vehicle: Klucel + Tween-80).

Regarding `C=CCOc1cc2c(cc1C(C)c1ccccc1OC)OCO2` (stereo not drawn), the T/C by setting is: (dose: 50.0 mg/kg/injection, schedule: Q01DX005 (ip), vehicle: saline with Tween-80) 99 % of control; (dose: 100.0 mg/kg/injection, schedule: Q01DX005 (ip), vehicle: saline with Tween-80) 97 % of control; (dose: 200.0 mg/kg/injection, schedule: Q01DX005 (ip), vehicle: saline with Tween-80) 104 % of control.

For the compound `CC(C)c1c(C[N+](C)([O-])C(C)Cc2ccccc2)n(C)n(-c2ccccc2)c1=O` (stereo not drawn), the T/C was 106 % of control (dose: 60.0 mg/kg/injection, schedule: Q01DX005 (ip), vehicle: saline with Tween-80); 102 % of control (dose: 120.0 mg/kg/injection, schedule: Q01DX005 (ip), vehicle: saline with Tween-80); 100 % of control (dose: 240.0 mg/kg/injection, schedule: Q01DX005 (ip), vehicle: saline with Tween-80).

Turning to `Cc1c(-c2ccccc2)[nH]c2cc3c(cc12)Oc1ccccc1O3`, the T/C (dose: 17.5 mg/kg/injection, schedule: Q01DX009 (ip), vehicle: Klucel (hydroxypropylcellulose) (HPC)) is 101 % of control; the T/C (dose: 35.0 mg/kg/injection, schedule: Q01DX009 (ip), vehicle: Klucel (hydroxypropylcellulose) (HPC)) is 106 % of control; the T/C (dose: 70.0 mg/kg/injection, schedule: Q01DX009 (ip), vehicle: Klucel (hydroxypropylcellulose) (HPC)) is 105 % of control.

In the case of `COc1ccc(CC(N)c2nn[nH]n2)cc1` (stereo not drawn), the T/C runs as follows: under setting [2], 96 % of control; under setting [3], 98 % of control.

With `CCCCCCCCCCCCCCCC(=O)NCCO`, the T/C reads like this: (dose: 33.0 mg/kg/injection, schedule: Q04DX003 (ip), vehicle: saline with Tween-80) 91 % of control; (dose: 75.0 mg/kg/injection, schedule: Q04DX003 (ip), vehicle: saline with Tween-80) 87 % of control.

As to `COC1/C=C/OC2(C)Oc3c(C)c(O)c4c(c3C2=O)C(=O)C([N+](=O)[O-])=C(NC(=O)C(C)=C/C=C\C(C)C(O)C(C)C(O)C(C)C(OC(C)=O)C1C)C4=O` (stereo not drawn), the T/C under setting [4] was 90 % of control and the T/C under setting [5] was 98 % of control.

For `C[CH2][Pb]([CH2]C)([CH2]C)[O]C(=O)c1ccc2ccccc2n1`, the T/C runs as follows: (dose: 0.25 mg/kg/injection, schedule: Q01DX009 (ip), vehicle: saline with Tween-80) 100 % of control; (dose: 0.5 mg/kg/injection, schedule: Q01DX009 (ip), vehicle: saline with Tween-80) 103 % of control; (dose: 1.0 mg/kg/injection, schedule: Q01DX009 (ip), vehicle: saline with Tween-80) 99 % of control; (dose: 2.0 mg/kg/injection, schedule: Q01DX009 (ip), vehicle: saline with Tween-80) 94 % of control; (dose: 4.0 mg/kg/injection, schedule: Q01DX009 (ip), vehicle: saline with Tween-80) 112 % of control; (dose: 8.0 mg/kg/injection, schedule: Q01DX009 (ip), vehicle: saline with Tween-80) 90 % of control.

For the compound `CC(OS(C)(=O)=O)/C(Br)=C(/Br)C(C)OS(C)(=O)=O` (stereo not drawn), the T/C is, setting by setting: (dose: 100.0 mg/kg/injection, schedule: Q01DX001 (ip), vehicle: Klucel (hydroxypropylcellulose) (HPC)) 158 % of control; (dose: 200.0 mg/kg/injection, schedule: Q01DX001 (ip), vehicle: Klucel (hydroxypropylcellulose) (HPC)) 204 % of control; (dose: 400.0 mg/kg/injection, schedule: Q01DX001 (ip), vehicle: Klucel (hydroxypropylcellulose) (HPC)) 230 % of control.

Regarding `CC(=O)OC1N(C(C)=O)C(SC23CC4CC(CC(C4)C2)C3)C(C)=CC1(C)OC(C)=O` (stereo not drawn), the T/C is 111 % of control under setting [6], 110 % of control under setting [4] and 105 % of control under setting [5].

As for `CCOC(=O)c1c(C)c(-c2ccccc2)c(-c2ccccc2)c(C)c1-c1ccccc1`, the T/C by setting is: under setting [2], 97 % of control; under setting [3], 100 % of control; (dose: 200.0 mg/kg/injection, schedule: Q01DX009 (ip), vehicle: saline with Tween-80) 92 % of control.

Turning to `CCC(Cl)C#N` (stereo not drawn), the T/C is 106 % of control (dose: 7.5 mg/kg/injection, schedule: Q01DX005 (ip), vehicle: saline with Tween-80) and 100 % of control (dose: 15.0 mg/kg/injection, schedule: Q01DX005 (ip), vehicle: saline with Tween-80).

Consider `O=C(O)c1ccc(N=NC2Sc3nc4ccccc4n3C2=O)cc1` (stereo not drawn), for which the T/C by setting is: (dose: 60.0 mg/kg/injection, schedule: Q01DX005 (ip), vehicle: Klucel (hydroxypropylcellulose) (HPC)) 92 % of control; (dose: 120.0 mg/kg/injection, schedule: Q01DX005 (ip), vehicle: Klucel (hydroxypropylcellulose) (HPC)) 91 % of control.

With `CC1C(=O)SCC1(O)c1ccccc1` (stereo not drawn), the T/C is 102 % of control (dose: 100.0 mg/kg/injection, schedule: Q04DX002 (ip), vehicle: Klucel (hydroxypropylcellulose) (HPC)); 103 % of control (dose: 200.0 mg/kg/injection, schedule: Q04DX002 (ip), vehicle: Klucel (hydroxypropylcellulose) (HPC)); 107 % of control (dose: 400.0 mg/kg/injection, schedule: Q04DX002 (ip), vehicle: Klucel (hydroxypropylcellulose) (HPC)).

On to `N#CCCN(CCC#N)C(CCC(=O)O)C(=O)O` (stereo not drawn), for which the T/C was 93 % of control under setting [1]; 100 % of control (dose: 100.0 mg/kg/injection, schedule: Q01DX005 (ip), vehicle: saline); 101 % of control (dose: 200.0 mg/kg/injection, schedule: Q01DX005 (ip), vehicle: saline).

Consider `CCOC(=O)C1=C(C)NC(C)=C(C(=O)OCC)C1c1ccccn1`, for which the T/C runs as follows: under setting [6], 99 % of control; under setting [4], 97 % of control; under setting [5], 96 % of control.

Take `Oc1ccccc1C1NCCc2[nH]cnc21` (stereo not drawn): the T/C under setting [7] is 104 % of control, the T/C under setting [8] was 102 % of control and the T/C under setting [9] was 104 % of control.

For `FC(F)(F)c1ccc2c3c(c4c(c2n1)OCN(Cc1ccc(Cl)cc1Cl)C4)CN(Cc1ccc(Cl)cc1Cl)CO3`, the T/C is, setting by setting: (dose: 100.0 mg/kg/injection, schedule: Q01DX001 (ip), vehicle: other) 93 % of control; (dose: 200.0 mg/kg/injection, schedule: Q01DX001 (ip), vehicle: other) 93 % of control; (dose: 400.0 mg/kg/injection, schedule: Q01DX001 (ip), vehicle: other) 100 % of control.

Turning to `NNC(=O)C(=O)Nc1ccc(F)cc1`, the T/C by setting is: under setting [2], 96 % of control; under setting [3], 100 % of control.

For the compound `C/C=C\n1ccccc1=O`, the T/C is, setting by setting: (dose: 50.0 mg/kg/injection, schedule: Q01DX009 (ip), vehicle: saline) 107 % of control; (dose: 100.0 mg/kg/injection, schedule: Q01DX009 (ip), vehicle: saline) 113 % of control; (dose: 200.0 mg/kg/injection, schedule: Q01DX009 (ip), vehicle: saline) 109 % of control.

In the case of `N=C1OC(C(Cl)(Cl)Cl)N(c2cccc(F)c2)C1=O` (stereo not drawn), the T/C runs as follows: (dose: 60.0 mg/kg/injection, schedule: Q01DX005 (ip), vehicle: Klucel + Tween-80) 100 % of control; (dose: 120.0 mg/kg/injection, schedule: Q01DX005 (ip), vehicle: Klucel + Tween-80) 100 % of control; (dose: 240.0 mg/kg/injection, schedule: Q01DX005 (ip), vehicle: Klucel + Tween-80) 89 % of control.

As for `CN1C(=O)c2ccccc2NC(=O)C12O[C@@H]2c1cccc(O)c1` (stereo partly drawn), the T/C reads like this: (dose: 1.63 mg/kg/injection, schedule: Q01DX005 (ip), vehicle: DMSO) 106 % of control; (dose: 3.25 mg/kg/injection, schedule: Q01DX005 (ip), vehicle: DMSO) 106 % of control; (dose: 6.5 mg/kg/injection, schedule: Q01DX005 (ip), vehicle: DMSO) 113 % of control; (dose: 13.0 mg/kg/injection, schedule: Q01DX005 (ip), vehicle: DMSO) 100 % of control.

On to `O=c1c2ccccc2n(-c2ccccc2)c2ccccc12`, for which the T/C by setting is: under setting [7], 100 % of control; under setting [8], 100 % of control; under setting [9], 99 % of control.

In the case of `C=C1C(=O)OC2(C)CCCCC12` (stereo not drawn), the T/C by setting is: under setting [6], 92 % of control; under setting [4], 100 % of control; under setting [5], 93 % of control.

Source of the values: PubChem BioAssay AID330 (DTP/NCI, 2004).
